Laboratory results reported in publication PMC11433764, “A Novel Compound from the Phenylsulfonylpiperazine Class: Evaluation of In Vitro Activity on Luminal Breast Cancer Cells” (Molecules, 2024).
Read-outs that look alike come from different tables or passages of the source.

Experiments:
Assay type in all cases: cell-based
MDA-MB-453 = experiment: MTT cell viability, MDA-MB-453; parameters: key to SI MDA-MB-453: NS: the compound was more active in the non-tumor cell line; conditions: for IC50: Homo sapiens, MDA-MB-453, 48 h, MTT; for SI MDA-MB-453: IC50 MCF10A / IC50 MDA-MB-453
Description: (§1) Four different breast cells lines were used in this study: MCF-10A (non-tumorigenic), MCF7 (ER+ BC), MDA-MB453 (HER2+ BC) and MDA-MB231 (TNBC). All lineages were obtained from the American Type Culture Collection (ATCC; Manassas, VA, USA) and maintained at a temperature of 37 °C according to the supplier’s recommendations. Only MDA-MB231 cells were not kept in an atmosphere of 5% CO2. MCF-10A was grown in Dulbecco’s Modified Eagle’s Medium (DMEM F12, Gibco, ThermoFisher Scientific, Waltham, MA, USA) supplemented with 20 ng/mL epidermal growth factor (Gibco, ThermoFisher Scientific, Waltham, MA, USA), 0.5 μg/mL hydrocortisone (Sigma-Aldrich, Sigma-Aldrich, St. Louis, MO, USA) and 10 μg/mL insulin (Gibco, ThermoFisher Scientific, Waltham, MA, USA). MCF7 was cultivated in Roswell Park Memorial Institute Medium (RPMI-1640, Gibco, ThermoFisher Scientific, Waltham, MA, USA), MDA-MB453 in IMDM and MDA-MB231 in Leibovitz’s medium (L-15, Gibco, ThermoFisher Scientific, Waltham, MA, USA). All media were supplemented with 10% fetal bovine serum (FBS, Gibco, ThermoFisher Scientific, Waltham, MA, USA) and 50 µg/mL of gentamicin (Cultilab, Campinas, SP, Brazil). The cells were confirmed to be free of mycoplasma and passaged using a 0.25% trypsin-EDTA solution when confluency reached 80–90%.
(§2) Cell viability was determined by spectrophotometric quantification of MTT (3-[4,5-dimethyl-thiazol-2-yl]-2,5-diphenyltetrazolium bromide—Invitrogen. Waltham, MA, USA) reduction to formazan crystals. Cells were seeded at the density of 1 × 10^4 cells/well (MCF-10A, MDA-MB453), 1.5 × 10^4 cells/well (MDA-MB231) and 3 × 10^3 cells/well (MCF7) in 96-well culture dishes and incubated with different concentrations of the compounds (1.25, 2.5, 5, 10, 20, 40, 80 and 160 µM) for 48 h. The medium was than replaced by MTT solution (0.5 mg/mL) and plates were kept at 37 °C for 4 h. After the aspiration of the media, the formazan crystals were diluted with 100 μL of dimethyl-sulfoxide (DMSO)/well and the absorbance at 570 nm was measured using a spectrophotometer (Thermo Plate TP-Reader, Waltham, MA, USA). Cytotoxicity was calculated using the following formula: Cytotoxicity (%) = [absorbance of cells treated with the compounds/absorbance of cells treated with DMSO) × 100]. The IC50 was determined for each compound and was defined as the concentration required to inhibit 50% of cell growth, compared to the control sample (cells treated with DMSO 0.05%).
(§3) Data were presented as the mean ± standard deviation (SD) and analyzed using GraphPad Prism 9.0 software (GraphPad Software Inc., La Jolla, CA, USA). All data were assayed in triplicate. Statistical analysis was performed using one-way ANOVA, Tukey´s HSD post hoc test and Student’s t-test. The IC50 was calculated using non-linear regression and the selectivity index (SI) was calculated by the ratio between the IC50 values corresponding to the non-tumor cell lineage (MCF-10A) and the IC50 values corresponding to the BC cell lines. Statistical significance was accepted at p values < 0.05.

MCF-10A = experiment: MTT cell viability, non-tumor cell line MCF-10A; conditions: 48 h; for Cytotoxicity to the MCF-10A cell line (in words): up to 160 μM; for IC50: Homo sapiens, MCF-10A
Description: as §1, §2, §3

MDA-MB-231 = experiment: MTT cell viability, MDA-MB-231; parameters: key to SI MDA-MB-231: NS: the compound was more active in the non-tumor cell line; conditions: for IC50: Homo sapiens, MDA-MB-231, 48 h, MTT; for SI MDA-MB-231: IC50 MCF10A / IC50 MDA-MB-231
Description: as §1, §2, §3

[1] = system: tumor cells MCF7, MDA-MB-453 and MDA-MB-231; experiment: MTT cell viability, tumor cells (stated collectively); conditions: for IC50: 48 h, MTT, tumor cells stated collectively
Description: as §1, §2, §3

MCF7 = experiment: MTT cell viability, MCF7; parameters: key to SI MCF7: NS: the compound was more active in the non-tumor cell line; conditions: for IC50: Homo sapiens, MCF7, 48 h, MTT; for SI MCF7: IC50 MCF10A / IC50 MCF7
Description: as §1, §2, §3

[2] = 1.25–160 μM, read-out: IC50 MDA-MB-453
[3] = 1.25–160 μM, read-out: IC50 MCF-10A
[4] = 1.25–160 μM, read-out: IC50 MDA-MB-231
[5] = 1.25–160 μM, read-out: IC50 MCF7
[6] = read-out: IC50 MD-AMB 453 (Table S1)
[7] = read-out: IC50 MCF-10A (Table S1)
[8] = read-out: IC50 MD-AMB 231 (Table S1)

SMILES | IC50 (MDA-MB-453; [2]) [µM] | Cytotoxicity to the MCF-10A cell line (in words) (MCF-10A) | IC50 (MCF-10A; [3]) [µM] | IC50 (MDA-MB-231; [4]) [µM] | SI MDA-MB-231 (MDA-MB-231) | IC50 [1] [µM] | IC50 (MCF7; [5]) [µM] | SI MDA-MB-453 (MDA-MB-453) | SI MCF7 (MCF7) | Selectivity for tumor cells over MCF-10A (in words) [1] | IC50 (MDA-MB-453; [6]) [µM] | IC50 (MCF-10A; [7]) [µM] | IC50 (MDA-MB-231; [8]) [µM] | IC50 (MCF7; read-out: IC50 MCF7 (Table S1)) [µM]
N#Cc1ccc(C(=O)N2CCN(S(=O)(=O)c3ccc(Cl)cc3)CC2)cc1 [Compound 1] | > 160 | not cytotoxic | > 160 | 84.9 | >1.88 | > 50 | > 160 | – | – | – | – | – | – | –
CN(C)CCOc1ccc(C(=O)N2CCN(S(=O)(=O)c3ccc(Cl)cc3)CC2)cc1 [Compound 2] | 50.5 | – | 88.2 | 61.3 | 1.44 | – | > 160 | 1.75 | NS | – | – | – | – | –
O=C(c1ccc(Cl)nc1)N1CCN(S(=O)(=O)c2ccc(Cl)cc2)CC1 [Compound 4] | > 160 | not cytotoxic | > 160 | 112 | >1.42 | > 50 | > 160 | – | – | – | – | – | – | –
CN(C)CCNc1ccc(C(=O)N2CCN(S(=O)(=O)c3ccc(Cl)cc3)CC2)cn1 [Compound 5] | > 160 | not cytotoxic | > 160 | > 160 | – | > 50 | 82.9 | – | >1.93 | – | – | – | – | –
CCOC(=O)c1ccc(N2CCN(S(=O)(=O)c3ccc(Cl)cc3)CC2)nc1 [Compound 6] | > 160 | not cytotoxic | > 160 | 53.1 | >3.01 | > 50 | > 160 | – | – | – | – | – | – | –
O=S(=O)(c1ccc(Cl)cc1)N1CCN(c2ccc(CO)cn2)CC1 [Compound 7] | > 160 | – | 91.2 | 107 | 0.85 | – | > 160 | NS | NS | – | – | – | – | –
O=C(c1ccc(N2CCN(S(=O)(=O)c3ccc(Cl)cc3)CC2)nc1)N1CCCC1 [Compound 8] | 92.5 | – | 86 | 135 | NS | – | 154 | NS | NS | – | – | – | – | –
CN(C)C(=O)c1ccc(N2CCN(S(=O)(=O)c3ccc(Cl)cc3)CC2)nc1 [Compound 9] | > 160 | – | 63.9 | > 160 | NS | – | > 160 | NS | NS | – | – | – | – | –
CN(C)Cc1ccc(N2CCN(S(=O)(=O)c3ccc(Cl)cc3)CC2)nc1 [Compound 10] | 48.4 | – | 109 | > 160 | NS | < 50 | 62 | 2.25 | 1.75 | – | – | – | – | –
CN(C)Cc1ccc(N2CCN(S(=O)(=O)c3ccc(F)cc3)CC2)nc1 [Compound 11] | 109 | – | > 160 | > 160 | – | – | 20 | >1.47 | – | – | – | – | – | –
CN(C)CCOc1ccc(N2CCN(S(=O)(=O)c3ccc(Cl)cc3)CC2)cc1 [Compound 12] | 136 | – | 68.3 | > 160 | NS | < 50 | 49.9 | NS | 1.37 | not selective | – | – | – | –
O=S(=O)(c1ccc(Cl)cc1)N1CCNCC1 [Compound 13] | – | – | – | – | – | – | – | – | – | – | > 160 | > 160 | > 160 | > 160
Cc1ccc(S(=O)(=O)N2CCN(c3ccc(C(=O)N(C)C)cn3)CC2)cc1 [Compound 14] | – | – | – | – | – | – | – | – | – | – | > 160 | > 160 | > 160 | > 160
CN(C)C(=O)c1ccc(N2CCN(S(=O)(=O)c3ccccc3)CC2)nc1 [Compound 15] | – | – | – | – | – | – | – | – | – | – | > 160 | > 160 | > 160 | > 160
O=C(O)c1ccc(N2CCN(S(=O)(=O)c3ccc(Cl)cc3)CC2)nc1 [Compound 16] | – | – | – | – | – | – | – | – | – | – | > 160 | > 160 | > 160 | > 160
O=C(c1ccc(N2CCN(S(=O)(=O)c3ccc(Cl)cc3)CC2)nc1)N1CCOCC1 [Compound 17] | – | – | – | – | – | – | – | – | – | – | > 160 | > 160 | > 160 | > 160
CN1CCN(C(=O)c2ccc(N3CCN(S(=O)(=O)c4ccc(Cl)cc4)CC3)nc2)CC1 [Compound 18] | – | – | – | – | – | – | – | – | – | – | > 160 | > 160 | > 160 | > 160
O=S(=O)(c1ccc(F)cc1)N1CCN(c2ccccc2)CC1 [Compound 19] | – | – | – | – | – | – | – | – | – | – | > 160 | > 160 | > 160 | > 160
O=S(=O)(c1ccc(Cl)cc1)N1CCN(c2ccc(O)cc2)CC1 [Compound 20] | – | – | – | – | – | – | – | – | – | – | > 160 | > 160 | > 160 | > 160
